Reference: patent publication US20120077858A1, “COMPOUNDS ACT AT MULTIPLE PROSTAGLANDIN RECEPTORS GIVING A GENERAL ANTI-INFLAMMATORY RESPONSE” (ALLERGAN, INC., priority 2010, published 2012)
“And” between values parts separate entries of the source, which are not always exact repeats. Equal entries are not always repeated. Where two headings read alike, the source gives them in different places.

Key:
Assay type in all cases: cell-based
[1] = target: T1, human prostanoid FP receptor (Homo sapiens, UniProt P43088); assay: FLIPR Ca2+ signaling antagonist assay, FP receptor stable cell line; settings: HEK-293 EBNA stable cells, vs standard agonist 17-phenyl-PGF2α
T1 construct: expressed in transfected cells
T1 sequence (P43088 whole entry): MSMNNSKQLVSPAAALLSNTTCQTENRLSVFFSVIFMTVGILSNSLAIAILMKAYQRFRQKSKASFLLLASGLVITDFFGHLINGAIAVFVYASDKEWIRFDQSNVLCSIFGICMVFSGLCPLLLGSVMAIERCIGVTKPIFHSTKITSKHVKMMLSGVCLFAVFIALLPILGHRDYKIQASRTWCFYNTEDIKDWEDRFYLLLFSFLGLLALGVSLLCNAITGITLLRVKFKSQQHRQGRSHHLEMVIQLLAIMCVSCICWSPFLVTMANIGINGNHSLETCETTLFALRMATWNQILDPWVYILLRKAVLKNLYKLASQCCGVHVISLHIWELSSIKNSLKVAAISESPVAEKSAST
Description: (§1) The above compounds were tested for PG antagonist activity as follows using human recombinant prostanoid receptor (DP1, EP1-4, FP, IP and TP) stable cell lines:
(§2) In order to measure the response of Gs and Gi coupled prostanoid receptors as a Ca^2+ signal, chimeric G protein cDNAs were used. Stable cell lines over-expressing human prostanoid DP1, EP1-4, FP, IP, and TP receptors were established as follows:
(§3) Briefly, human prostanoid DP1, EP2, and EP4 receptor cDNAs were co-transfected with chimeric Gqs cDNA containing a haemagglutanin (HA) epitope; human prostanoid EP3 receptors were co-transfected with chimeric Gqi-HA; human EP1, FP, IP, and TP receptor cDNAs were expressed with no exogenous G-proteins. Gqs and Gqi chimeric cDNAs (Molecular Devices, Sunnyvale, Calif., U.S.A.), as well as cDNAs of prostanoid receptors, were cloned into a pCEP4 vector with a hygromycin B selection marker. Transfection into HEK-293 EBNA (Epstein-Barr virus nuclear antigen) cells was achieved by the FuGENE 6 transfection Reagent (Roche Applied Science, Indianapolis, Ind., USA). Stable transfectants were selected according to hygromycin resistance. Because Gqs and Gqi contained an HA epitope, G-protein expression was detected by Western blotting analysis using anti-mouse HA monoclonal antibody and horseradish peroxidase (HRP)-conjugated secondary antibody, while functional expression of prostanoid receptors was detected by FLIPR screening. These stable cell lines were validated using previously published antagonists at 10 μM against serial dilutions of standard agonists by FLIPR functional assays for Ca^2+ Signaling (as described below).
(§4) Ca^2+ signaling studies were performed using a FLIPR TETRA system (Molecular Devices, Sunnyvale, Calif., USA) in the 384-format. This is a high-throughput instrument for cell-based assays to monitor Ca^2+ signaling associated with GPCRs and ion channels. Cells were seeded at a density of 5×10^4 cells/well in BioCoat poly-D-lysine coated, black wall, clear bottom 384-well plates (BD Biosciences, Franklin lakes, NJ, USA) and allowed to attach overnight in an incubator at 37° C. […]
(§5) After 4.5 minutes, a 7-point serial dilution of the standard agonist for the corresponding receptor, in a 25 μl volume was injected at the final concentrations from 10^−11M to 10^−5M 10-fold serial dilution increments for cells expressing human recombinant DP1, EP1, EP2, EP3, EP4, FP, and IP receptors. […] Cells were excited with LED (light emitting diode) excitation at 470-495 nm and emission was measured through an emission filter at 515-575 nm. Assay plates were read for 3.5 minutes using the FLIPR^TETRA. The peak increase in fluorescence intensity was recorded for each well. […]

[2] = target: T2, human prostanoid EP1 receptor (Homo sapiens, UniProt P34995); assay: FLIPR Ca2+ signaling antagonist assay, EP1 receptor stable cell line; settings: vs standard agonist PGE2
T2 construct: expressed in transfected cells
T2 sequence (P34995 1-402): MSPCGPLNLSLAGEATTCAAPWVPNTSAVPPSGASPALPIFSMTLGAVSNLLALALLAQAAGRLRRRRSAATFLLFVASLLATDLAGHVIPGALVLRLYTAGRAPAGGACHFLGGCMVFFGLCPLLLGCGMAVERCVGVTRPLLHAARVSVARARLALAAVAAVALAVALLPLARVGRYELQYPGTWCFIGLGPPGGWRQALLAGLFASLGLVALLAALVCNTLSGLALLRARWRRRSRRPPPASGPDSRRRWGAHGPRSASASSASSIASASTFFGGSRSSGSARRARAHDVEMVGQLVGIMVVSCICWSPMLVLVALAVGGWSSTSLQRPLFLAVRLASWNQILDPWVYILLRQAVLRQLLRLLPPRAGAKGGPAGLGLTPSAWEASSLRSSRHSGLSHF
Description: as §1, §2, §3, §4, §5

[3] = target: T3, human prostanoid EP2 receptor (Homo sapiens, UniProt P43116); assay: FLIPR Ca2+ signaling antagonist assay, EP2 receptor stable cell line; settings: chimeric Gqs, vs standard agonist PGE2
T3 construct: expressed in transfected cells
T3 sequence (P43116 whole entry): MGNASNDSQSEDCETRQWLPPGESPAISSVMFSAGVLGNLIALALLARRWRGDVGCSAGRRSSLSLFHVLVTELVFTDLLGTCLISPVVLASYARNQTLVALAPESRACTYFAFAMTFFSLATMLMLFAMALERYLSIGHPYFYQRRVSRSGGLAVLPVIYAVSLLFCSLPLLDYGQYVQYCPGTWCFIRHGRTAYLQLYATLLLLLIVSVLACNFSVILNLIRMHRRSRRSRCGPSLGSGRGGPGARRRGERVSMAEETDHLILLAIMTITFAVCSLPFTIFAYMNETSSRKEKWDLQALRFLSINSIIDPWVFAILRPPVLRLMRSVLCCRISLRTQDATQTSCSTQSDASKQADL
Description: as §1, §2, §3, §4, §5

[4] = target: T4, human prostanoid EP3 receptor (Homo sapiens, UniProt P43115); assay: FLIPR Ca2+ signaling antagonist assay, EP3 receptor stable cell line; settings: chimeric Gqi, vs standard agonist PGE2
T4 construct: expressed in transfected cells
T4 sequence (P43115 1-390): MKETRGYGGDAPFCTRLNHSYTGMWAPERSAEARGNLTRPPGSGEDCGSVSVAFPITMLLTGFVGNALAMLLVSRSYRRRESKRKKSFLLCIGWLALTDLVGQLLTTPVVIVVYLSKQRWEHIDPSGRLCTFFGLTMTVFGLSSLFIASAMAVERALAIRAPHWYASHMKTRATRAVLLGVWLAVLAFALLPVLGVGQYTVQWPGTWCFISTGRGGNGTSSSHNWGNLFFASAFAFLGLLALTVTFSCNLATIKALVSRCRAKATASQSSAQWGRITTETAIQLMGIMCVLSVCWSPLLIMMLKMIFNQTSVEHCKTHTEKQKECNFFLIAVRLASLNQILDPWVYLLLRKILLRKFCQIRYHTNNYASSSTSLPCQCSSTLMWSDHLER
Description: as §1, §2, §3, §4, §5

[5] = target: T5, human prostanoid EP4 receptor (Homo sapiens, UniProt P35408); assay: FLIPR Ca2+ signaling antagonist assay, EP4 receptor stable cell line; settings: chimeric Gqs, vs standard agonist PGE2
T5 construct: expressed in transfected cells
T5 sequence (P35408 whole entry): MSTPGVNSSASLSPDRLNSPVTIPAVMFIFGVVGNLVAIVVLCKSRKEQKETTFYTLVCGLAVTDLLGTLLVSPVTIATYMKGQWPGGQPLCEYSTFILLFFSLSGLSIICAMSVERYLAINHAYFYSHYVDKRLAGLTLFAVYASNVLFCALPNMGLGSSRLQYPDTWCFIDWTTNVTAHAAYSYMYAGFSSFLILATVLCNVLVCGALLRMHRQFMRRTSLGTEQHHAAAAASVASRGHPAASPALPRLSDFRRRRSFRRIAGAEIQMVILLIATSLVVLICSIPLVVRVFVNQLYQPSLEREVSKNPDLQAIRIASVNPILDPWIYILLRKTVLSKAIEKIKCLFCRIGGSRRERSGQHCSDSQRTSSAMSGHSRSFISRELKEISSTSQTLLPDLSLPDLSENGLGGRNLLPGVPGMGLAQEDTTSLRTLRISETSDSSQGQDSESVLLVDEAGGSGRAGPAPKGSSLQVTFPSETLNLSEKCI
Description: as §1, §2, §3, §4, §5

[6] = target: T6, human prostanoid IP receptor (Homo sapiens, UniProt P43119); assay: FLIPR Ca2+ signaling antagonist assay, IP receptor stable cell line; settings: HEK-293 EBNA stable cells, vs standard agonist Cicaprost
T6 construct: expressed in transfected cells
T6 sequence (P43119 whole entry): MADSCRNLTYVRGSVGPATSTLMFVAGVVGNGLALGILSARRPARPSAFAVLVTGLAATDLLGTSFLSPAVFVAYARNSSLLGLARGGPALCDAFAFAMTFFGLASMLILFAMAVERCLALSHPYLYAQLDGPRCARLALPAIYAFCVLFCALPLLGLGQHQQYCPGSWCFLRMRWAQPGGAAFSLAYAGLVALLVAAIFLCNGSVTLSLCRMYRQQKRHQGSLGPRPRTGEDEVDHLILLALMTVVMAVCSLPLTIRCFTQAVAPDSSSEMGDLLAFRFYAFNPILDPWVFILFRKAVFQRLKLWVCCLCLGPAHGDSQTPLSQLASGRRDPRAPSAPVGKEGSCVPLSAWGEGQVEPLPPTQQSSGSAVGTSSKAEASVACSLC
Description: as §1, §2, §3, §4, §5

[7] = target: T7, human prostanoid TP receptor (Homo sapiens, UniProt P21731); assay: FLIPR Ca2+ signaling antagonist assay, TP receptor stable cell line
T7 construct: expressed in transfected cells
T7 sequence (P21731 1-343): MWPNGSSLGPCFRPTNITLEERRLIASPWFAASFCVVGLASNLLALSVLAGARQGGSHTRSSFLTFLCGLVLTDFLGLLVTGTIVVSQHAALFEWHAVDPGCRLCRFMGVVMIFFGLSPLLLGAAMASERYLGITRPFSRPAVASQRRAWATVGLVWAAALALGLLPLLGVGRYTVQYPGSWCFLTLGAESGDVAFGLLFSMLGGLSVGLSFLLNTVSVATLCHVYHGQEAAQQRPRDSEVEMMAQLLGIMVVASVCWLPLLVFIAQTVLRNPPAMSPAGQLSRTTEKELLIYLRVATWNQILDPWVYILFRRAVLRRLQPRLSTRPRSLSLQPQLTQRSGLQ
Description: as §1, §2
as §3, with “These stable cell lines were validated using previously published antagonists at 10 μM against serial dilutions of standard agonists by FLIPR functional assays for Ca^2+ Signaling (as described below).” left out
as §5

[8] = target: T8, human prostanoid DP1 receptor (Homo sapiens, UniProt Q13258); assay: FLIPR Ca2+ signaling antagonist assay, DP1 receptor stable cell line
T8 construct: expressed in transfected cells
T8 sequence (Q13258 1-359): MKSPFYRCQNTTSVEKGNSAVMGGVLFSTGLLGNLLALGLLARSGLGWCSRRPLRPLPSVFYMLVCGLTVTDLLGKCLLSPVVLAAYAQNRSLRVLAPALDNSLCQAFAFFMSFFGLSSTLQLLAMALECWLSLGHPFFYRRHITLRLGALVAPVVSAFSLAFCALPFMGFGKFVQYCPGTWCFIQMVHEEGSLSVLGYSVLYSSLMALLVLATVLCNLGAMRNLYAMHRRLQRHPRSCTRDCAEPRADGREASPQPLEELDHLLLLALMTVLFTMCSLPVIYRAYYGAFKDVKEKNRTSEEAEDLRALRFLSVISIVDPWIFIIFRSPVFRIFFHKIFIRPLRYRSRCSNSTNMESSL
Description: as §1, §2
Briefly, human prostanoid DP1, EP2, and EP4 receptor cDNAs were co-transfected with chimeric Gqs cDNA containing a haemagglutanin (HA) epitope; human prostanoid EP3 receptors were co-transfected with chimeric Gqi-HA; human EP1, FP, IP, and TP receptor cDNAs were expressed with no exogenous G-proteins. […] Because Gqs and Gqi contained an HA epitope, G-protein expression was detected by Western blotting analysis using anti-mouse HA monoclonal antibody and horseradish peroxidase (HRP)-conjugated secondary antibody, while functional expression of prostanoid receptors was detected by FLIPR screening. […]
After 4.5 minutes, a 7-point serial dilution of the standard agonist for the corresponding receptor, in a 25 μl volume was injected at the final concentrations from 10^−11M to 10^−5M 10-fold serial dilution increments for cells expressing human recombinant DP1, EP1, EP2, EP3, EP4, FP, and IP receptors. […] Assay plates were read for 3.5 minutes using the FLIPR^TETRA. […]

[9] = read-out: EC50 (nM) on Prostanoid Receptor Functional Activity Measured by FLIPR
[10] = HEK-293 EBNA stable cells, read-out: EC50 (nM) on Prostanoid Receptor Functional Activity Measured by FLIPR, (FLIPR) Kb (nM): EP1
[11] = HEK-293 EBNA stable cells, read-out: EC50 (nM) on Prostanoid Receptor Functional Activity Measured by FLIPR, (FLIPR) Kb (nM): EP2
[12] = HEK-293 EBNA stable cells, read-out: EC50 (nM) on Prostanoid Receptor Functional Activity Measured by FLIPR, (FLIPR) Kb (nM): EP3
[13] = HEK-293 EBNA stable cells, read-out: EC50 (nM) on Prostanoid Receptor Functional Activity Measured by FLIPR, (FLIPR) Kb (nM): EP4
[14] = HEK-293 EBNA stable cells, vs standard agonist U-46619, read-out: EC50 (nM) on Prostanoid Receptor Functional Activity Measured by FLIPR, (FLIPR) Kb (nM): TP
[15] = EC50 (nM) on Prostanoid Receptor Functional Activity Measured by FLIPR

Kb [1, 9]	Kb [2, 10]	Kb [3, 11]	Kb [4, 12]	Kb [5, 13]	Kb [6, 9]	Kb [7, 14] [nM]	Kb ([8]; HEK-293 EBNA stable cells, chimeric Gqs, vs standard agonist BW 245C, read-out: EC50 (nM) on Prostanoid Receptor Functional Activity Measured by FLIPR, (FLIPR) Kb (nM): DP) [nM]	SMILES	Kb [1, 15] [nM]	Kb [8] [nM]	Kb ([2]; EC50 (nM) on Prostanoid Receptor Functional Activity Measured by FLIPR, (FLIPR) Kb (nM): EP1, HEK-293 EBNA stable cells) [nM]	Kb ([3]; EC50 (nM) on Prostanoid Receptor Functional Activity Measured by FLIPR, (FLIPR) Kb (nM): EP2, HEK-293 EBNA stable cells) [nM]	Kb ([4]; EC50 (nM) on Prostanoid Receptor Functional Activity Measured by FLIPR, (FLIPR) Kb (nM): EP3, HEK-293 EBNA stable cells) [nM]	Kb ([5]; EC50 (nM) on Prostanoid Receptor Functional Activity Measured by FLIPR, (FLIPR) Kb (nM): EP4, HEK-293 EBNA stable cells) [nM]	Kb [6, 15] [nM]	Kb [7] [nM]
460 nM	70 nM	5500 nM	100 nM	37 nM	9500 nM			O=C(CCc1ccc(Cl)cc1CN1CCC[C@H]1c1nc(C(=O)NCCCCC2CCCCC2)co1)NS(=O)(=O)C(F)(F)F [Example 12b, (S)—N-(4-cyclohexylbutyl)-2-(1-(5-chloro-2-(3-oxo-3-(trifluoromethylsulfonamido)propyl)benzyl)pyrrolidin-2-yl)oxazole-4-carboxamide]								
350 nM and 270 nM	47 nM and 20 nM	6400 nM and 830 nM	82 nM and 47 nM	38 nM and 10 nM	550 nM and 860 nM	< 1		O=C(CCc1ccc(F)cc1CN1CCC[C@H]1c1nc(C(=O)NCCCCC2CCCCC2)co1)NS(=O)(=O)C(F)(F)F [Example 12a]								
								CCCCCCCCNC(=O)c1coc(C2CCCN2Cc2cc(F)ccc2CCC(=O)NS(=O)(=O)C(F)(F)F)n1 (centres unmarked) [Example 12e, 2-{1-[5-fluoro-2-(3-oxo-3-{[(trifluoromethyl)sulfonyl]amino}propyl)benzyl]pyrrolidin-2-yl}-N-octyl-1,3-oxazole-4-carboxamide]	270	18	20	2500	110	19	290	> 1
360 nM	63 nM	3900 nM	150 nM	7 nM	1000 nM	0.3	3	O=C(CCc1cc2c(cc1CN1CCCC1c1nc(C(=O)NCCCCC3CCCCC3)co1)OCO2)NS(=O)(=O)C(F)(F)F (centres unmarked) [Example 12d]								
